Test results: PubChem BioAssay AID248 (DTP/NCI, 2004)
“And” between values parts separate entries of the source, which are not always exact repeats. Identical values can stand only once. Inconclusive results and toxic doses are left out. Cut-off read from the data, not from the text of the source: active = T/C of 150% or more; inactive = T/C below 125%.

System: L1210 leukemia ip in BDF1 mice, survival T/C
Assay: NCI In Vivo Anticancer Drug Screen. Data for tumor model L1210 Leukemia (intraperitoneal) in B6D2F1 (BDF1) mice
Conditions: endpoint: mean survival time, higher = longer survival
How it was run: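 Tumor cells were implanted, animals were treated, and survival was followed. The result divides the treated measurement by the vehicle-control measurement.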

[1] = dose: 100.0 mg/kg/injection, schedule: Q01DX001 (ip), vehicle: saline
[2] = dose: 200.0 mg/kg/injection, schedule: Q01DX001 (ip), vehicle: saline
[3] = dose: 400.0 mg/kg/injection, schedule: Q01DX001 (ip), vehicle: saline
[4] = dose: 50.0 mg/kg/injection, schedule: Q01DX009 (ip), vehicle: saline with Tween-80
[5] = dose: 100.0 mg/kg/injection, schedule: Q01DX009 (ip), vehicle: saline with Tween-80
[6] = dose: 200.0 mg/kg/injection, schedule: Q01DX009 (ip), vehicle: saline with Tween-80
[7] = dose: 100.0 mg/kg/injection, schedule: Q01DX001 (ip), vehicle: carboxymethylcellulose (CMC)
[8] = dose: 200.0 mg/kg/injection, schedule: Q01DX001 (ip), vehicle: carboxymethylcellulose (CMC)
[9] = dose: 400.0 mg/kg/injection, schedule: Q01DX001 (ip), vehicle: carboxymethylcellulose (CMC)
[10] = dose: 50.0 mg/kg/injection, schedule: Q01DX001 (ip), vehicle: saline
[11] = dose: 100.0 mg/kg/injection, schedule: Q04DX003 (ip), vehicle: saline with Tween-80
[12] = dose: 200.0 mg/kg/injection, schedule: Q04DX003 (ip), vehicle: saline with Tween-80
[13] = dose: 400.0 mg/kg/injection, schedule: Q04DX003 (ip), vehicle: saline with Tween-80

Measured: T/C

CC(C(=O)O)N(Cc1ccccc1)S(C)(=O)=O (stereo not drawn)
inactive: dose: 100.0 mg/kg/injection, schedule: Q01DX009 (ip), vehicle: other 97 % of control | dose: 100.0 mg/kg/injection, schedule: Q04DX003 (ip), vehicle: other 94 % of control | dose: 200.0 mg/kg/injection, schedule: Q01DX009 (ip), vehicle: other 106 % of control | dose: 200.0 mg/kg/injection, schedule: Q04DX003 (ip), vehicle: other 102 % of control | dose: 400.0 mg/kg/injection, schedule: Q01DX009 (ip), vehicle: other 108 % of control | dose: 400.0 mg/kg/injection, schedule: Q04DX003 (ip), vehicle: other 101 % of control

CC1(C)CC(N)CC(C)(C)N1O
inactive: dose: 100.0 mg/kg/injection, schedule: Q04DX003 (ip), vehicle: saline 100 % of control | dose: 200.0 mg/kg/injection, schedule: Q04DX003 (ip), vehicle: saline 97 % of control

CCn1c(C)nc2cc(Cl)c([N+](=O)[O-])cc21
inactive: [1] 91 % of control | dose: 100.0 mg/kg/injection, schedule: Q04DX003 (ip), vehicle: acetone 93 % of control | [2] 110 % of control | dose: 200.0 mg/kg/injection, schedule: Q04DX003 (ip), vehicle: acetone 93 % of control | [3] 96 % of control | dose: 400.0 mg/kg/injection, schedule: Q04DX003 (ip), vehicle: acetone 96 % of control

O=C(Nc1ccc(Cl)cc1Cl)Oc1ccc(F)cc1
inactive: [4] 94 % of control | [5] 94 % of control | [6] 102 % of control

O=C1CCCCC1CO (stereo not drawn)
inactive: dose: 100.0 mg/kg/injection, schedule: Q01DX009 (ip), vehicle: Klucel (hydroxypropylcellulose) (HPC) 96 % of control | dose: 100.0 mg/kg/injection, schedule: Q04DX002 (ip), vehicle: Klucel (hydroxypropylcellulose) (HPC) 96 % of control | dose: 200.0 mg/kg/injection, schedule: Q01DX009 (ip), vehicle: Klucel (hydroxypropylcellulose) (HPC) 100 % of control | dose: 200.0 mg/kg/injection, schedule: Q04DX002 (ip), vehicle: Klucel (hydroxypropylcellulose) (HPC) 100 % of control | dose: 400.0 mg/kg/injection, schedule: Q01DX009 (ip), vehicle: Klucel (hydroxypropylcellulose) (HPC) 89 % of control | dose: 400.0 mg/kg/injection, schedule: Q04DX002 (ip), vehicle: Klucel (hydroxypropylcellulose) (HPC) 86 % of control

COc1ccc(Oc2cccc3c2CCN(C)C3)cc1
inactive: dose: 12.5 mg/kg/injection, schedule: Q04DX002 (ip), vehicle: Klucel (hydroxypropylcellulose) (HPC) 102 % of control | dose: 25.0 mg/kg/injection, schedule: Q04DX002 (ip), vehicle: Klucel (hydroxypropylcellulose) (HPC) 115 % of control | dose: 50.0 mg/kg/injection, schedule: Q04DX002 (ip), vehicle: Klucel (hydroxypropylcellulose) (HPC) 97 % of control

COCc1nc2c(=S)nc[nH]c2n1N
inactive: [7] 105 % of control | [8] 98 % of control

CC(=O)OC1c2cc(Cl)ccc2-c2c(Cl)cc(Cl)cc21 (stereo not drawn)
inactive: [7] 95 % of control | [8] 95 % of control | [9] 95 % of control

CCCCCC1OC1CC1OC1CCCCCCCC(=O)OC (stereo not drawn)
inactive: [1] 109 % of control | [2] 95 % of control | [3] 102 % of control

O=C1SC(c2ccccc2)(c2ccccc2)c2cscc21
inactive: [4] 86 % of control | [5] 86 % of control

CC(=O)Nc1ccc(NCc2cnc3nc(N)nc(N)c3n2)cc1
inactive: dose: 20.0 mg/kg/injection, schedule: Q01DX009 (ip), vehicle: Klucel (hydroxypropylcellulose) (HPC) 96 % of control | dose: 40.0 mg/kg/injection, schedule: Q01DX009 (ip), vehicle: Klucel (hydroxypropylcellulose) (HPC) 104 % of control | dose: 80.0 mg/kg/injection, schedule: Q01DX009 (ip), vehicle: Klucel (hydroxypropylcellulose) (HPC) 96 % of control

[CH3][Sn]([CH3])([CH3])[O][N+](=O)[O-]
inactive: dose: 0.18 mg/kg/injection, schedule: Q01DX009 (ip), vehicle: saline 94 % of control | dose: 0.37 mg/kg/injection, schedule: Q01DX009 (ip), vehicle: saline 100 % of control | dose: 0.75 mg/kg/injection, schedule: Q01DX009 (ip), vehicle: saline 103 % of control | dose: 1.5 mg/kg/injection, schedule: Q04DX003 (ip), vehicle: saline 108 % of control | dose: 3.0 mg/kg/injection, schedule: Q04DX003 (ip), vehicle: saline 103 % of control

C1CCC(N=C(NC2CCCCC2)OC2CCCCC2)CC1
inactive: dose: 11.1 mg/kg/injection, schedule: Q01DX Z (ip), vehicle: methylcellulose (MC) 97 % of control | dose: 16.6 mg/kg/injection, schedule: Q01DX Z (ip), vehicle: methylcellulose (MC) 89 % of control | dose: 25.0 mg/kg/injection, schedule: Q01DX Z (ip), vehicle: methylcellulose (MC) 101 % of control

CCC(C)(O)CC
inactive: [1] 97 % of control | [2] 110 % of control | [3] 110 % of control

CNC(=O)NC(C)(C)CCCCC(C)(C)NC(=O)NC
inactive: [10] 104 % of control | [1] 102 % of control | [2] 93 % of control | [3] 96 % of control

C[C@@H]1CN1C1=CC(=O)C(N2C[C@H]2C)=CC1=O
inactive: dose: 6.25 mg/kg/injection, schedule: Q04DX003 (ip), vehicle: saline with Tween-80 117 % of control | dose: 12.5 mg/kg/injection, schedule: Q04DX003 (ip), vehicle: saline with Tween-80 117 % of control

COc1ccccc1CCO
inactive: dose: 50.0 mg/kg/injection, schedule: Q01DX001 (ip), vehicle: carboxymethylcellulose (CMC) 86 % of control | [7] 98 % of control | [8] 98 % of control | [9] 98 % of control

Cc1nc2nc(N)nc(N)c2nc1C
inactive: dose: 15.63 mg/kg/injection, schedule: Q01DX Z (ip), vehicle: carboxymethylcellulose (CMC) 103 % of control | dose: 31.25 mg/kg/injection, schedule: Q01DX Z (ip), vehicle: carboxymethylcellulose (CMC) 93 % of control | [10] 117 % of control | dose: 62.5 mg/kg/injection, schedule: Q01DX Z (ip), vehicle: carboxymethylcellulose (CMC) 91 % of control | [1] 102 % of control | dose: 125.0 mg/kg/injection, schedule: Q01DX Z (ip), vehicle: carboxymethylcellulose (CMC) 92 % of control | [2] 102 % of control | [3] 100 % of control

C=C(C)CCCC(C)CC#N (stereo not drawn)
inactive: [7] 117 % of control | [8] 100 % of control | [9] 96 % of control

COc1ccc(C(O)(c2ccccc2)C(O)c2ccccc2)cc1 (stereo not drawn)
inactive: [5] 98 % of control | [6] 88 % of control | dose: 400.0 mg/kg/injection, schedule: Q01DX009 (ip), vehicle: saline with Tween-80 86 % of control

COc1ccc(C(=O)OC(c2ccccc2)c2ccccc2)cc1
inactive: [1] 98 % of control | [2] 100 % of control | [3] 89 % of control

Cc1ccccc1Sc1ncnc2nc[nH]c12
inactive: [11] 91 % of control | [12] 102 % of control | [13] 101 % of control

[O-]/[N+](=N/O)c1ccccc1
inactive: [1] 92 % of control

Cc1ccc(Cl)cc1NC(=O)N1CCCCC1C (stereo not drawn)
inactive: dose: 50.0 mg/kg/injection, schedule: Q04DX002 (ip), vehicle: saline with Tween-80 106 % of control and 92 % of control | dose: 100.0 mg/kg/injection, schedule: Q01DX001 (ip), vehicle: saline with Tween-80 109 % of control | [5] 95 % of control and 96 % of control | [11] 97 % of control | dose: 200.0 mg/kg/injection, schedule: Q01DX001 (ip), vehicle: saline with Tween-80 103 % of control | [6] 94 % of control and 100 % of control | [12] 103 % of control | dose: 400.0 mg/kg/injection, schedule: Q01DX001 (ip), vehicle: saline with Tween-80 104 % of control | [13] 95 % of control

O=CNc1ccc2ccccc2c1
inactive: dose: 37.5 mg/kg/injection, schedule: Q04DX003 (ip), vehicle: Klucel (hydroxypropylcellulose) (HPC) 92 % of control | dose: 75.0 mg/kg/injection, schedule: Q04DX003 (ip), vehicle: Klucel (hydroxypropylcellulose) (HPC) 97 % of control | dose: 150.0 mg/kg/injection, schedule: Q04DX003 (ip), vehicle: Klucel (hydroxypropylcellulose) (HPC) 103 % of control
